According to PMC9380671, “Development of spiro-3-indolin-2-one containing compounds of antiproliferative and anti-SARS-CoV-2 properties” (Scientific Reports, 2022):
Read-outs that look alike come from different tables or passages of the source.

Key:
[1] = system: SARS-CoV-2 (hCoV-19/Egypt/NRC-03/2020); settings: Vero-E6; cited from earlier work
VERO-E6 cells = settings: cited from earlier work
[2] = MTT cytotoxicity assay (CC50); format: cell-based; settings: African green monkey, VERO-E6 cells
Protocol: The cytotoxic activity of the compounds was tested in VERO-E6 cells by using the 3-(4,5-dimethylthiazol-2-yl)-2,5-diphenyltetrazolium bromide (MTT) method with minor modifications. Briefly, the cells were seeded in 96 well-plates […] at a density of 3 x 10^5 cell/ml and incubated for 24 h at 37 °C in 5% CO2. After 24 h, cells were treated with various concentrated of the tested compounds in triplicates. 24 h later, the supernatant was discarded and cell monolayers were washed with sterile 1x phosphate buffer saline (PBS) 3 times and MTT solution (20 µl of 5 mg/ml) was added to each well and incubated at 37 °C for 4 h followed by medium aspiration. In each well, the formed formazan crystals were dissolved with 200 µl of acidified isopropanol (0.04 M HCl in absolute isopropanol = 0.073 ml HCl in 50 ml isopropanol). Eventually, the absorbance was measured at λmax 570 nm using the Anthos Zenyth 200rt plate reader (Anthos Labtec Instruments, Heerhugowaard, Netherlands). The cytotoxicity of various concentrations compared to the untreated cells was determined using nonlinear regression analysis by plotting log inhibitor versus normalized response.^12^-14

[3] = system: HCT116 (colon) cancer cell line; experiment: MTT antiproliferation, HCT116; format: cell-based, human; settings: for IC50: Homo sapiens, HCT-116, 72 h, read-out: IC50 (µM) ± SEM HCT116; for SI (selectivity index) HCT116: IC50 of RPE1/IC50 of cancer cell line
Protocol: (§1) Antiproliferation properties of the targeted agents were investigated by the standard MTT technique against diverse human cancer cell lines [MCF7 (breast), HCT116 (colon), A431 (skin squamous) and PaCa2 (pancreatic)][67] (Table 1, Supplementary Figs. S48‒S51).
(§2) Cells were seeded at concentration of 30000 cells per well in fresh complete growth medium in 96-well tissue culture microtiter plates for 24 h. […] 0.5% DMSO was used as negative control. Triplicate wells were prepared for each individual dose. After 72 h of incubation, medium was aspirated, 40 μl MTT salt (2.5 mg ml^-1) was added to each well and incubated for further 4 h at 37 °C. To stop the reaction and dissolve the formed crystals, 150 μl of 10% sodium dodecyl sulfate (SDS) in deionized water was added to each well and incubated overnight at 37 °C.
(§3) Data were collected as mean values for experiments performed in triplicates for each individual dose which had been measured by MTT assay. […] The cell surviving fraction was calculated according to the following equation.
(§4) Surviving fraction = OpticaldensityO.D.oftreatedcellsO.D.ofcontrolcells
(§5) Statistical calculations for determination of the mean and standard error mean values were determined by SPSS 16 software.

EGFR = molecular target: T1, EGFR (Homo sapiens, UniProt P00533); format: cell-based; settings: western blot, MCF7, compound at its MTT IC50; for EGFR RQ (relative quantification): control RQ 3.4461
T1 construct: Western blot technique was considered for EGFR and VEGFR-2 properties determination; endogenous in cells; host or cells: MCF7 (breast cancer cell line)
T1 sequence (P00533 25-1210): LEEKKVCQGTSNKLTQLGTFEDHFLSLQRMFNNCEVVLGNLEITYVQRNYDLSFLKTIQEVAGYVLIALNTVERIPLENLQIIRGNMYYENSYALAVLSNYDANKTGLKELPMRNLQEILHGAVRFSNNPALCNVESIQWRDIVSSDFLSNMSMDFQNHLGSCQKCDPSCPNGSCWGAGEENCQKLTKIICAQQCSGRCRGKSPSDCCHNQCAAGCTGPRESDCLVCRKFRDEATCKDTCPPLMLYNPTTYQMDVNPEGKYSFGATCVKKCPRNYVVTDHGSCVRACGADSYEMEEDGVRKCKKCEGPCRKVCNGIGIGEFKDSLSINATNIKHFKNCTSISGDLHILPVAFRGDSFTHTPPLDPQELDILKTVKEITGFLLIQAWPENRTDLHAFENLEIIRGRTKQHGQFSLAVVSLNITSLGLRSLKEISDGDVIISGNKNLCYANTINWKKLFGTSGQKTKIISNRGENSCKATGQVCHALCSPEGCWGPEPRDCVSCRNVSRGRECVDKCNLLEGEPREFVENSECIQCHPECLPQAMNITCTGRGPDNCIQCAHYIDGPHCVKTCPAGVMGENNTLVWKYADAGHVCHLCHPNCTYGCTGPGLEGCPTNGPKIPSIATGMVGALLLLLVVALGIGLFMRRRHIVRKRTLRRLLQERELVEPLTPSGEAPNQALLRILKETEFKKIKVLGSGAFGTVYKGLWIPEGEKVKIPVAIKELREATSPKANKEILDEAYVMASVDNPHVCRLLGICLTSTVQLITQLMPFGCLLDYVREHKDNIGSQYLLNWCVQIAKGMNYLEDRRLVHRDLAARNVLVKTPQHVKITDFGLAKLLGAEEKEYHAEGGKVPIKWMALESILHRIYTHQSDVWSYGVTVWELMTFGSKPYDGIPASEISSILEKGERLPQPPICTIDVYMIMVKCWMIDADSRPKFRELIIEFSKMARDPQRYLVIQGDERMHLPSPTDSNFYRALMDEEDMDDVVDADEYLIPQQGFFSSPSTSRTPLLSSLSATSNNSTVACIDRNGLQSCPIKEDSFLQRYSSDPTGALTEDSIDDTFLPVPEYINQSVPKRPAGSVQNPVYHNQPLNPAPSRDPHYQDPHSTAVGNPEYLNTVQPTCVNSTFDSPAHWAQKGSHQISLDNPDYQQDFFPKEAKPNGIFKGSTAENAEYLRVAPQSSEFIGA
From the text: (§6) The western blot technique was applied utilizing the IC50 observed for each respective agent synthesized during MTT assay[85],[86]. Consideration of multi-targeted inhibitory properties investigation is based in the fact that cancer initiation and proliferation sometimes utilizes many receptors or signaling pathways.
(§7) Western blot technique was considered for EGFR and VEGFR-2 properties determination utilizing the IC50 observed of each respective agent synthesized during MTT assay against MCF7 (breast) cancer cell line. All the studies were conducted according to the manufacturer’s instruction.^10,^11

VEGFR-2 = molecular target: T2, VEGFR-2 (Homo sapiens, UniProt P35968); format: cell-based; settings: western blot, MCF7, compound at its MTT IC50; for VEGFR-2 RQ (relative quantification): control RQ 3.2634
T2 construct: Western blot technique was considered for EGFR and VEGFR-2 properties determination; endogenous in cells; host or cells: MCF7 (breast cancer cell line)
T2 sequence (P35968 20-1356): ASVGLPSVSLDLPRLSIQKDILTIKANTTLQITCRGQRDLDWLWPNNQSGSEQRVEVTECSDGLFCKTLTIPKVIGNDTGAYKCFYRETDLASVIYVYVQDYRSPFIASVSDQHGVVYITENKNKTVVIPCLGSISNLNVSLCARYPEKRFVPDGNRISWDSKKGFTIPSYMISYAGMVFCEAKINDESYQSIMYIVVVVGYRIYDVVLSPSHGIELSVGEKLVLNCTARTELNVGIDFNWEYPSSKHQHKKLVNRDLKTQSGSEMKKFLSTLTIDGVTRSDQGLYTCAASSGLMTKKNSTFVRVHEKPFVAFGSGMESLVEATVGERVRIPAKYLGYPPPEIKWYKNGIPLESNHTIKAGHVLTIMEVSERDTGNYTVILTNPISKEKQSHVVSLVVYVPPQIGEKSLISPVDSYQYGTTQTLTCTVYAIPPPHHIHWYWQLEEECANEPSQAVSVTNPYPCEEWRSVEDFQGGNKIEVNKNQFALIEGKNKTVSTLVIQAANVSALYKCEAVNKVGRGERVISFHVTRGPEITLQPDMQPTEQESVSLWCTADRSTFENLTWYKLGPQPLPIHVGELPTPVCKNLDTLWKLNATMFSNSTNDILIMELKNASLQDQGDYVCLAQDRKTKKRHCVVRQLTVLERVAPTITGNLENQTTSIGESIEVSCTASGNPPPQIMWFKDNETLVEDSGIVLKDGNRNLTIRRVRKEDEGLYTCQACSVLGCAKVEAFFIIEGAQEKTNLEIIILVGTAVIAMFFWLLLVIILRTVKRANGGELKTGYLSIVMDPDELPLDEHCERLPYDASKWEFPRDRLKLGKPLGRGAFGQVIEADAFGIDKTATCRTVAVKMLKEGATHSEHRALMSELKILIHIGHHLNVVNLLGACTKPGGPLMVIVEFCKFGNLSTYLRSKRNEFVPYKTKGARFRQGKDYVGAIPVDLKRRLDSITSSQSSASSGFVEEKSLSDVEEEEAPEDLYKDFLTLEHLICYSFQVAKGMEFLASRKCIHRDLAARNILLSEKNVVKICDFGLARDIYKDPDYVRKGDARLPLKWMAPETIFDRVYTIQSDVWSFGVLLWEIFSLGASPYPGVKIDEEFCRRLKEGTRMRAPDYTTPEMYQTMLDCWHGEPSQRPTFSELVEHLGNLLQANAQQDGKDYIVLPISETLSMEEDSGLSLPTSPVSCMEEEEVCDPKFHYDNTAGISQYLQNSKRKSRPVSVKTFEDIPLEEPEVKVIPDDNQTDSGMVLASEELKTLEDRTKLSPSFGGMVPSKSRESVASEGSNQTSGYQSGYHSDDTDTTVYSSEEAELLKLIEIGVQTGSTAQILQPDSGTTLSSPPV
From the text: as §6, §7

BChE = BChE (Homo sapiens, UniProt P06276); experiment: BChE inhibition (DTNB, butyrylthiocholine iodide)
Chain of BChE (P06276 29-602, species assumed): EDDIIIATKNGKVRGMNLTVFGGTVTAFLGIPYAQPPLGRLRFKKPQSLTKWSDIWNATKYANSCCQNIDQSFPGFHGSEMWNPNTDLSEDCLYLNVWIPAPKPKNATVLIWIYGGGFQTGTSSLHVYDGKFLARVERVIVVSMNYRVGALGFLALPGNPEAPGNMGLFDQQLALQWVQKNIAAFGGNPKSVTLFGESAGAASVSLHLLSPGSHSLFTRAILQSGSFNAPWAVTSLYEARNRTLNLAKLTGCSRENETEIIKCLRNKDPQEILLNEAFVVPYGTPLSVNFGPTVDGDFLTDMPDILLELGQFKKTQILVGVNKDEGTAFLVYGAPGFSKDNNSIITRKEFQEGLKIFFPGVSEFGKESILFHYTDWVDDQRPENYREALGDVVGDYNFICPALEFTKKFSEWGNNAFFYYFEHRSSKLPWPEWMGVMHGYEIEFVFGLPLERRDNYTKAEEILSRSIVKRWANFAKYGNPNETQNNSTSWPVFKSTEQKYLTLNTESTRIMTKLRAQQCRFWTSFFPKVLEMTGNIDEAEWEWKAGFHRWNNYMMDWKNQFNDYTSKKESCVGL

AChE = AChE (Homo sapiens, UniProt P22303); experiment: AChE inhibition (DTNB, acetylthiocholine); format: biochemical; settings: for IC50: read-out: AChE (IC50, μM) ± SD
Chain of AChE (P22303 32-614): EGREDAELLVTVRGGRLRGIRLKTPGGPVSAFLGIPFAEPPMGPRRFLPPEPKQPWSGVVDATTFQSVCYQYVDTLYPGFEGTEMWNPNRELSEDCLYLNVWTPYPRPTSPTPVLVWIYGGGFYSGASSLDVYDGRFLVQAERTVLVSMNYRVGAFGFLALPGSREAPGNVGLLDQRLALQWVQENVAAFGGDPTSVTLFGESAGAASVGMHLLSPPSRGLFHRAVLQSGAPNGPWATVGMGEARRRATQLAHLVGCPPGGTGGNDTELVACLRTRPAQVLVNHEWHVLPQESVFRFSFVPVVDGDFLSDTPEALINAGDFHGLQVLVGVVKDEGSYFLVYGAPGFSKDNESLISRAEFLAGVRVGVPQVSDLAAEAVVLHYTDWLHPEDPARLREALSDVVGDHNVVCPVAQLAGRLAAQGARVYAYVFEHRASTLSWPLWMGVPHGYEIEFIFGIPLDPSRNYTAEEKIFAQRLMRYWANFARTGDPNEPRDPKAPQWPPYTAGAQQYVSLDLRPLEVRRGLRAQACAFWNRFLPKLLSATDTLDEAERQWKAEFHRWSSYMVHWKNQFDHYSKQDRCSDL
Protocol: All compounds were dissolved in MeOH.

[4] = system: A431 (skin squamous) cancer cell line; experiment: MTT antiproliferation, A431; format: cell-based, human; settings: for IC50: Homo sapiens; for SI (selectivity index) A431: IC50 of RPE1/IC50 of cancer cell line
Protocol: as §1, §2, §3, §4, §5

[5] = system: PaCa2 (pancreatic) cancer cell line; experiment: MTT antiproliferation, PaCa-2; format: cell-based, human; settings: for IC50: Homo sapiens, PaCa-2, 72 h, read-out: IC50 (µM) ± SEM PaCa-2; for SI (selectivity index) PaCa-2: IC50 of RPE1/IC50 of cancer cell line
Protocol: as §1
Cells were suspended in DMEM medium for MCF7, A431, PaCa-2 and McCoy’s 5A for HCT116 in addition to 1% antibiotic–antimycotic mixture (10000 μg ml^-1 potassium penicillin, 10000 μg ml^-1 streptomycin sulfate and 25 μg ml^-1 amphotericin B), 10% fetal bovine serum and 1% L-glutamine at 37 °C, under 5% CO2 and 95% humidity. Cells were seeded at concentration of 30000 cells per well in fresh complete growth medium in 96-well tissue culture microtiter plates for 24 h. Media was aspirated, fresh complete medium was added and cells were incubated with different concentrations of the tested compound to give a final concentration of [50, 25, 12.5 and 6.25 μM “in addition to 3.125, 1.56 and 0.78 μM in case of high potent analogues”). 0.5% DMSO was used as negative control. Triplicate wells were prepared for each individual dose. After 72 h of incubation, medium was aspirated, 40 μl MTT salt (2.5 mg ml^-1) was added to each well and incubated for further 4 h at 37 °C. To stop the reaction and dissolve the formed crystals, 150 μl of 10% sodium dodecyl sulfate (SDS) in deionized water was added to each well and incubated overnight at 37 °C. The absorbance was then measured at 570 nm and a reference wavelength of 595 nm.
as §3, §4
(§8) Statistical calculations for determination of the mean and standard error mean values were determined by SPSS 16 software. The observed anti-proliferative properties are presented in Table 1 (Supplementary Figs. S48‒S52).

[6] = system: MCF7 (breast) cancer cell line; experiment: MTT antiproliferation, MCF7; format: cell-based, human; settings: for IC50: Homo sapiens, MCF7, 72 h, read-out: IC50 (µM) ± SEM MCF7; for SI (selectivity index) MCF7: IC50 of RPE1/IC50 of cancer cell line
Protocol: as §1, §2, §3, §4, §5

[7] = system: SARS-CoV-2 (hCoV-19/Egypt/NRC-03/2020); experiment: Vero-E6 cell viral infection model, anti-SARS-CoV-2 IC50 (CPE, crystal violet); format: cell-based; settings: for IC50: Severe acute respiratory syndrome coronavirus 2, Vero C1008; for SI = CC50/IC50: Vero-E6, SARS-CoV-2
[8] = system: RPE1 (normal human immortalized retinal pigment epithelial cell line); experiment: MTT toxicity towards normal cells, RPE1; format: cell-based; settings: RPE-1, read-out: IC50 (µM) ± SEM RPE1
Protocol: The safety of the synthesized agents against non-cancer/normal RPE1 (retinal pigment epithelium) cell line was assessed (Table 1, Supplementary Fig. S52). The SI (selectivity index) for the tested compounds against RPE1 cell line confirms the safety towards non-cancer cells. […] Compound 6d and 6h which are also of high anti-PaCa2 show remarkable SI values (SI = > 3.8, > 3.6, respectively).
The agents synthesized were also tested against RPE1 (normal human immortalized retinal pigment epithelial cell line) cell (in DMEM-F12 medium) to determine the toxicity/selectivity towards normal cells relative to the cancer cell lines utilized.
as §8

[9] = A-431, 72 h, read-out: IC50 (µM) ± SEM A431
[10] = A-431, read-out: Observed log(IC50, μM) (A431) (converted)
[11] = Vero-E6, 72 h, reduction of virus-induced CPE, read-out: IC50 (µM) SARS-CoV-2
[12] = log of observed IC50 in μM, read-out: Observed log(IC50, μM) (SARS-CoV-2) (converted)

SMILES | IC50 [1] [µM] | CC50 at 24 h [2] [µM] | IC50 [3] [µM] | SI (selectivity index) HCT116 [3] | EGFR % Inhibition (EGFR) [%] | EGFR RQ (relative quantification) (EGFR) | VEGFR-2 % Inhibition (VEGFR-2) [%] | VEGFR-2 RQ (relative quantification) (VEGFR-2) | IC50 (BChE) [µM] | SI = IC50 (AChE)/IC50 (BChE) (AChE) | IC50 (AChE) [µM] | IC50 [4, 9] [µM] | IC50 [4, 10] [µM] | SI (selectivity index) A431 [4] | IC50 [5] [µM] | SI (selectivity index) PaCa-2 [5] | IC50 [6] [µM] | SI (selectivity index) MCF7 [6] | IC50 [7, 11] [µM] | IC50 [7, 12] [µM] | other results
CCN(CC)CCCC(C)Nc1ccnc2cc(Cl)ccc12 (stereo not shown) [Chloroquine] | 25 |  |  |  |  |  |  |  |  |  |  |  |  |  |  |  |  |  |  |  | 
CCN(CCO)CCCC(C)Nc1ccnc2cc(Cl)ccc12 (stereo not shown) [Hydroxychloroquine] | 36.9 |  |  |  |  |  |  |  |  |  |  |  |  |  |  |  |  |  |  |  | CC50 (VERO-E6 cells): 356 µM; SI = CC50/IC50 [1]: 9.7
CN1CC(c2ccc(F)cc2)C2(CN(S(C)(=O)=O)C/C(=C\c3ccc(F)cc3)C2=O)C12C(=O)Nc1ccccc12 (stereo not shown) [Compound 6e, (E)-5″-(4-Fluorobenzylidene)-4′-(4-fluorophenyl)-1′-methyl-1″-(methylsulfonyl)dispiro[indoline-3,2′-pyrrolidine-3′,3″-piperidine]-2,4″-dione] |  | 203 | 9.89 ± 0.85 | 5.0 | 66.7 | 1.147 | 64.5 | 1.158 | 22.2 ± 4.54 | 0.7 | 15.1 ± 5.76 | 16.1 ± 0.99 | 16.1 | 3.1 | 39.9 ± 1.89 | 1.2 | 15.5 ± 0.76 | 3.2 | 27.9 | 27.9 | SI = CC50/IC50 [7]: 7.3; IC50 [8]: 49 ± 1.11 µM
CN1CC(c2ccc(Cl)cc2)C2(CN(S(C)(=O)=O)C/C(=C\c3ccc(Cl)cc3)C2=O)C12C(=O)Nc1ccc(Cl)cc12 (stereo not shown) [Compound 6j, (E)-5-Chloro-5″-(4-chlorobenzylidene)-4′-(4-chlorophenyl)-1′-methyl-1″-(methylsulfonyl)dispiro[indoline-3,2′-pyrrolidine-3′,3″-piperidine]-2,4″-dione] |  | 201 | 4.72 ± 0.25 | 2.6 | 63.3 | 1.2634 | 57.9 | 1.3745 | 22.3 ± 3.33 | 1.9 | 42.8 ± 4.61 | 4.08 ± 0.21 | 4.08 | 3.1 | 8.83 ± 0.51 | 1.4 | 4.51 ± 0.39 | 2.8 | 27.1 | 27.1 | SI = CC50/IC50 [7]: 7.4; IC50 [8]: 12.5 ± 0.86 µM
CCS(=O)(=O)N1C/C(=C\c2ccc(F)cc2)C(=O)C2(C1)C(c1ccc(F)cc1)CN(C)C21C(=O)Nc2ccccc21 (stereo not shown) [Compound 6g, (E)-1″-(Ethylsulfonyl)-5″-(4-fluorobenzylidene)-4′-(4-fluorophenyl)-1′-methyldispiro[indoline-3,2′-pyrrolidine-3′,3″-piperidine]-2,4″-dione] |  | 79.2 | 4.94 ± 0.25 | 6.8 | 62.8 | 1.28 | 63.7 | 1.186 | 3.22 ± 0.92 | 0.8 | 2.46 ± 0.99 | 6.17 ± 0.44 | 6.17 | 5.4 | 28.4 ± 0.85 | 1.2 | 10.3 ± 0.86 | 3.2 | 16.9 | 16.9 | SI = CC50/IC50 [7]: 4.7; IC50 [8]: 33.4 ± 1.22 µM
NC(=O)c1nc(F)c[nH]c1=O [Favipiravir] | 1380 |  |  |  |  |  |  |  |  |  |  |  |  |  |  |  |  |  |  |  | CC50 (VERO-E6 cells): 5260 µM; SI = CC50/IC50 [1]: 3.8
